According to patent publication US6787525B1, “Glyceryl nucleotides, method for the production thereof and their use” (priority 1998, dated 2004):

Experiments:
NCI/ADR-RES = assay: In vitro cytostatic effect (SRB): NCI/ADR-RES, Breast cancer; settings: for CC50: read-out: LC50, 48-hour incubation
MDA-N = assay: In vitro cytostatic effect (SRB): MDA-N, Breast cancer; settings: for GI50 / TGI: 48-hour incubation; for CC50: read-out: LC50, 48-hour incubation
COLO205 = assay: In vitro cytostatic effect (SRB): COLO205, Intestinal cancer; settings: for GI50 / TGI: 48-hour incubation; for CC50: read-out: LC50, 48-hour incubation
SW-620 = assay: In vitro cytostatic effect (SRB): SW-620, Intestinal cancer; settings: for GI50 / TGI: 48-hour incubation; for CC50: read-out: LC50, 48-hour incubation
MDA-MB-435 = assay: In vitro cytostatic effect (SRB): MDA-MB-435, Breast cancer; settings: for GI50 / TGI: 48-hour incubation; for CC50: read-out: LC50, 48-hour incubation
SK-MEL-28 = assay: In vitro cytostatic effect (SRB): SK-MEL-28, Melanoma; settings: for GI50 / TGI: 48-hour incubation; for CC50: read-out: LC50, 48-hour incubation
NCI-H460 = assay: In vitro cytostatic effect (SRB): NCI-H460, Lung cancer; settings: for GI50 / TGI: 48-hour incubation; for CC50: read-out: LC50, 48-hour incubation
768-0 = assay: In vitro cytostatic effect (SRB): 768-0, Kidney cancer; settings: for GI50 / TGI: 48-hour incubation; for CC50: read-out: LC50, 48-hour incubation
OVCAR-4 = assay: In vitro cytostatic effect (SRB): OVCAR-4, Ovarian cancer; settings: for GI50 / TGI: 48-hour incubation; for CC50: read-out: LC50, 48-hour incubation
SF-295 = assay: In vitro cytostatic effect (SRB): SF-295, Cancer of the central nervous system; settings: for GI50 / TGI: 48-hour incubation; for CC50: read-out: LC50, 48-hour incubation
PC-3 = assay: In vitro cytostatic effect (SRB): PC-3, Prostate cancer; settings: for GI50 / TGI: 48-hour incubation; for CC50: read-out: LC50, 48-hour incubation
LOX IMVI = assay: In vitro cytostatic effect (SRB): LOX IMVI, Melanoma; settings: for GI50 / TGI: 48-hour incubation; for CC50: read-out: LC50, 48-hour incubation
SN12C = assay: In vitro cytostatic effect (SRB): SN12C, Kidney cancer; settings: for GI50 / TGI: 48-hour incubation; for CC50: read-out: LC50, 48-hour incubation
SK-MEL-5 = assay: In vitro cytostatic effect (SRB): SK-MEL-5, Melanoma; settings: for GI50 / TGI: 48-hour incubation; for CC50: read-out: LC50, 48-hour incubation
A549/ATCC = assay: In vitro cytostatic effect (SRB): A549/ATCC, Lung cancer; settings: for GI50 / TGI: 48-hour incubation; for CC50: read-out: LC50, 48-hour incubation
TK-10 = assay: In vitro cytostatic effect (SRB): TK-10, Kidney cancer; settings: for GI50 / TGI: 48-hour incubation; for CC50: read-out: LC50, 48-hour incubation
IGROV1 = assay: In vitro cytostatic effect (SRB): IGROV1, Ovarian cancer; settings: for GI50 / TGI: 48-hour incubation; for CC50: read-out: LC50, 48-hour incubation
SR = assay: In vitro cytostatic effect (SRB): SR, Leukemia; settings: for CC50: read-out: LC50, 48-hour incubation
HS 578T = assay: In vitro cytostatic effect (SRB): HS 578T, Breast cancer; settings: for GI50 / TGI: 48-hour incubation; for CC50: read-out: LC50, 48-hour incubation
HCT-116 = assay: In vitro cytostatic effect (SRB): HCT-116, Intestinal cancer; settings: for GI50 / TGI: 48-hour incubation; for CC50: read-out: LC50, 48-hour incubation
NCI-H522 = assay: In vitro cytostatic effect (SRB): NCI-H522, Lung cancer; settings: for GI50 / TGI: 48-hour incubation; for CC50: read-out: LC50, 48-hour incubation
MALME-3M = assay: In vitro cytostatic effect (SRB): MALME-3M, Melanoma; settings: for GI50 / TGI: 48-hour incubation; for CC50: read-out: LC50, 48-hour incubation
HOP-62 = assay: In vitro cytostatic effect (SRB): HOP-62, Lung cancer; settings: for GI50 / TGI: 48-hour incubation; for CC50: read-out: LC50, 48-hour incubation
UACC-62 = assay: In vitro cytostatic effect (SRB): UACC-62, Melanoma; settings: for GI50 / TGI: 48-hour incubation; for CC50: read-out: LC50, 48-hour incubation
EKVX = assay: In vitro cytostatic effect (SRB): EKVX, Lung cancer; settings: for GI50 / TGI: 48-hour incubation
MOLT-4 = assay: In vitro cytostatic effect (SRB): MOLT-4, Leukemia; settings: for GI50 / TGI: 48-hour incubation; for CC50: read-out: LC50, 48-hour incubation
SNB-19 = assay: In vitro cytostatic effect (SRB): SNB-19, Cancer of the central nervous system; settings: for GI50 / TGI: 48-hour incubation; for CC50: read-out: LC50, 48-hour incubation
SNB-75 = assay: In vitro cytostatic effect (SRB): SNB-75, Cancer of the central nervous system; settings: for GI50 / TGI: 48-hour incubation; for CC50: read-out: LC50, 48-hour incubation

## CCCCCCCCCCCCCCCCCCOC(COP(=O)(O)OCC1OC(n2cc(F)c(=O)[nH]c2=O)CC1O)COP(=O)(O)OCC1OC(n2ccc(N)nc2=O)C(O)C1O (racemic) [NSC 698688-A/1, arabinocytidylyl-(5′→1)-2-O-octadecyl-rac-glycerylyl-(3→5′)-5-fluoro-2′-deoxyuridine]
NCI/ADR-RES; 48-hour incubation
  TGI: >1.00E − 04 mol/l
NCI/ADR-RES
  CC50: > 100 µM
MDA-N
  GI50: > 100 µM
  TGI: >1.00E − 04 mol/l
  CC50: > 100 µM
COLO205
  GI50: 10.5 µM
  TGI: 3.88E − 05 mol/l
  CC50: > 100 µM
SW-620
  GI50: 62.8 µM
  TGI: >1.00E − 04 mol/l
  CC50: > 100 µM
MDA-MB-435
  GI50: 33.8 µM
  TGI: >1.00E − 04 mol/l
  CC50: > 100 µM
SK-MEL-28
  GI50: 57.8 µM
  TGI: >1.00E − 04 mol/l
  CC50: > 100 µM
NCI-H460
  GI50: 46.6 nM
  TGI: 2.79E − 05 mol/l
  CC50: > 100 µM
768-0
  GI50: 854 nM
  TGI: 1.34E − 05 mol/l
  CC50: 44.4 µM
OVCAR-4
  GI50: 58.5 µM
  TGI: >1.00E − 04 mol/l
  CC50: > 100 µM
SF-295
  GI50: 799 nM
  TGI: >1.00E − 04 mol/l
  CC50: > 100 µM
PC-3
  GI50: 11.5 µM
  TGI: 8.64E − 05 mol/l
  CC50: > 100 µM
LOX IMVI
  GI50: 1400 nM
  TGI: >1.00E − 04 mol/l
  CC50: > 100 µM
SN12C
  GI50: 13.3 µM
  TGI: >1.00E − 04 mol/l
  CC50: > 100 µM
SK-MEL-5
  GI50: > 100000 nM
  TGI: >1.00E − 04 mol/l
  CC50: > 100 µM
A549/ATCC
  GI50: 346 nM
  TGI: >1.00E − 04 mol/l
  CC50: > 100 µM
TK-10
  GI50: 22.9 µM
  TGI: >1.00E − 04 mol/l
  CC50: > 100 µM
IGROV1
  GI50: 13.6 µM
  TGI: >1.00E − 04 mol/l
  CC50: > 100 µM
SR; 48-hour incubation
  TGI: >1.00E − 04 mol/l
SR
  CC50: > 100 µM
HS 578T
  GI50: > 100000 nM
  TGI: >1.00E − 04 mol/l
  CC50: > 100 µM
HCT-116
  GI50: 4900 nM
  TGI: >1.00E − 04 mol/l
  CC50: > 100 µM
NCI-H522
  GI50: 16.2 µM
  TGI: >1.00E − 04 mol/l
  CC50: > 100 µM
MALME-3M
  GI50: > 100 µM
  TGI: >1.00E − 04 mol/l
  CC50: > 100 µM
HOP-62
  GI50: 699 nM
  TGI: >1.00E − 04 mol/l
  CC50: > 100 µM
UACC-62
  GI50: 1770 nM
  TGI: >1.00E − 04 mol/l
  CC50: > 100 µM
EKVX
  GI50: > 100 µM
  TGI: >1.00E − 04 mol/l
EKVX; read-out: LC50, 48-hour incubation
  CC50: > 100 µM
MOLT-4
  GI50: 467 nM
  TGI: >1.00E − 04 mol/l
  CC50: > 100 µM
SNB-19
  GI50: 919 nM
  TGI: 2.37E − 05 mol/l
  CC50: 64.1 µM
SNB-75
  GI50: 20.4 µM
  TGI: >1.00E − 04 mol/l
  CC50: > 100 µM

## Nc1ccn(C2CCC(COP(=O)(O)OCC(O)COP(=O)(O)OCC3OC(n4cc(F)c(=O)[nH]c4=O)CC3O)O2)c(=O)n1 (racemic) [NSC 704533, 2′,3′-didesoxycytidylyl-(5′→1)-racglycerylyl-(3→5′)-5-fluoro-2′-desoxyuridine]
NCI/ADR-RES; 48-hour incubation
  GI50: 695 nM
  TGI: >1.00E − 04 mol/l
NCI/ADR-RES
  CC50: > 100 µM
MDA-N
  GI50: 25.4 µM
  TGI: >1.00E − 04 mol/l
  CC50: > 100 µM
COLO205
  GI50: 17.7 µM
  TGI: >1.00E − 04 mol/l
  CC50: > 100 µM
SW-620
  GI50: > 100 µM
  TGI: >1.00E − 04 mol/l
  CC50: > 100 µM
MDA-MB-435
  GI50: 4.76 µM
  TGI: >1.00E − 04 mol/l
  CC50: > 100 µM
SK-MEL-28
  GI50: 37.9 µM
  TGI: >1.00E − 04 mol/l
  CC50: > 100 µM
NCI-H460
  GI50: < 10 nM
  TGI: >1.00E − 04 mol/l
  CC50: > 100 µM
768-0
  GI50: > 100000 nM
  TGI: >1.00E − 04 mol/l
  CC50: > 100 µM
OVCAR-4
  GI50: > 100 µM
  TGI: >1.00E − 04 mol/l
  CC50: > 100 µM
SF-295
  GI50: 34.5 nM
  TGI: >1.00E − 04 mol/l
  CC50: > 100 µM
PC-3
  GI50: 2.28 µM
  TGI: >1.00E − 04 mol/l
  CC50: > 100 µM
LOX IMVI
  GI50: 10.1 nM
  TGI: >1.00E − 04 mol/l
  CC50: > 100 µM
SN12C
  GI50: 0.173 µM
  TGI: >1.00E − 04 mol/l
  CC50: > 100 µM
SK-MEL-5
  GI50: 689 nM
  TGI: >1.00E − 04 mol/l
  CC50: > 100 µM
A549/ATCC
  GI50: 47.7 nM
  TGI: >1.00E − 04 mol/l
  CC50: > 100 µM
TK-10
  GI50: 6.25 µM
  TGI: >1.00E − 04 mol/l
  CC50: > 100 µM
IGROV1
  GI50: 68 µM
  TGI: >1.00E − 04 mol/l
  CC50: > 100 µM
SR; 48-hour incubation
  GI50: < 10 nM
  TGI: >1.00E − 04 mol/l
SR
  CC50: > 100 µM
HS 578T
  GI50: 732 nM
  TGI: >1.00E − 04 mol/l
  CC50: > 100 µM
HCT-116
  GI50: 374 nM
  TGI: >1.00E − 04 mol/l
  CC50: > 100 µM
NCI-H522
  GI50: 0.746 µM
  TGI: >1.00E − 04 mol/l
  CC50: > 100 µM
MALME-3M
  GI50: > 100 µM
  TGI: >1.00E − 04 mol/l
  CC50: > 100 µM
HOP-62
  GI50: 902 nM
  TGI: >1.00E − 04 mol/l
  CC50: > 100 µM
UACC-62
  GI50: 550 nM
  TGI: >1.00E − 04 mol/l
  CC50: > 100 µM
EKVX
  GI50: > 100 µM
  TGI: >1.00E − 04 mol/l
MOLT-4
  GI50: 104 nM
  TGI: >1.00E − 04 mol/l
  CC50: > 100 µM
SNB-19
  GI50: 250 nM
  TGI: >1.00E − 04 mol/l
  CC50: > 100 µM
SNB-75
  GI50: 1.59 µM
  TGI: >1.00E − 04 mol/l
  CC50: > 100 µM
